#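 Five compound concentrations were applied to cells in 96-well plates for 48 hours; endpoints were derived by simple linear interpolation of the resulting dose-response curve. Here, GI50 denotes the concentration required for 50% inhibition of growth. TGI is the concentration that stops growth completely.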
# Experiments:
# Test in all cases: NCI anticancer screen, dose series, 48 h
# [1] = tested on: CCRF-CEM leukemia
# [2] = tested on: SR leukemia
# [3] = tested on: SK-OV-3 ovarian
# [4] = tested on: U251 CNS
# [5] = tested on: HOP-92 NSCLC
# [6] = tested on: EKVX NSCLC
# [7] = tested on: COLO 205 colon
# [8] = tested on: OVCAR-3 ovarian
# [9] = tested on: SF-268 CNS
# [10] = tested on: HS 578T breast
Structure (SMILES),TGI [1],TGI [2],TGI [3],TGI [4],TGI [5],TGI [6],TGI [7],TGI [8],TGI [9],GI50 [1],TGI [10],GI50 [10],GI50 [3],GI50 [4],GI50 [5],GI50 [8],GI50 [9]
CCN(CC)CCCCC1CCN(CC(=O)N2c3ccccc3NC(=O)CC2C)CC1 (stereo unspecified),> 100 µM,> 100 µM,> 100 µM,> 100 µM,> 100 µM,> 100 µM,> 100 µM,> 100 µM,> 100 µM,–,–,–,–,–,–,–,–
C/C(=C\Cc1cc(O)ccc1O)CCc1c(C)cc(O)c(C=O)c1C,30.5 µM,> 100 µM,> 100 µM,67.6 µM,35.3 µM,> 100 µM,33.4 µM,53.1 µM,46 µM,4.46 µM,–,–,–,–,–,–,–
O=S(=O)(O)C1CCC(O)C2[N-]CCCC21.O=S(=O)(O)C1CCC(O)C2[N-]CCCC21.[Zn+2] (stereo unspecified),–,> 100 µM,> 100 µM,> 100 µM,> 100 µM,> 100 µM,> 100 µM,> 100 µM,> 100 µM,–,> 100 µM,–,–,–,–,–,–
Cc1c2cccc-2ccc2c1[nH]c1ccccc12,> 26.1 µM,18.9 µM,11 µM,3.17 µM,7.75 µM,3.68 µM,3.68 µM,6.03 µM,4 µM,–,–,–,–,–,–,–,–
CCCCCCOc1ccc(C(=N)N(CCCC)CCCC)c2ccccc12,–,–,2.96 µM,2.97 µM,2.6 µM,–,–,2.98 µM,3.53 µM,–,3.76 µM,1.61 µM,1.57 µM,1.5 µM,1.07 µM,1.49 µM,1.62 µM
C=CCOC(=O)CCCCCCCCCCCCCCCOC(=O)C1=C(CCC[C@@H](C)O[Si](C)(C)C(C)(C)C)NC(=O)N2[C@H](CC3(CC/C=C\[C@H](CC)O[Si](C(C)C)(C(C)C)C(C)C)OCCO3)CC[C@H]12,> 100 µM,–,> 100 µM,> 100 µM,90.2 µM,> 100 µM,> 100 µM,> 100 µM,> 100 µM,–,–,–,–,–,–,–,–
O=c1c2c(nc3n1CCC3)sc1c(O)c(Br)ccc12,45.1 µM,54 µM,> 100 µM,57.3 µM,> 100 µM,68.6 µM,24.4 µM,36.7 µM,> 100 µM,–,–,–,–,–,–,–,–
CC12CC(c3ccccc3O1)C(C(=O)Nc1cccc(F)c1)C(=O)N2 (stereo unspecified),> 100 µM,> 100 µM,> 100 µM,> 100 µM,–,> 100 µM,> 100 µM,> 100 µM,> 100 µM,–,> 100 µM,–,–,–,–,–,–
CNc1ccc(S(=O)Nc2ccccc2)cc1 (stereo unspecified),> 100 µM,> 100 µM,–,> 100 µM,–,> 100 µM,83.5 µM,> 100 µM,> 100 µM,–,> 100 µM,–,–,–,–,–,–
CC(C)(C)c1ccc(-c2nnc(-c3cc(C#N)cc(-c4nnc(-c5ccc(C(C)(C)C)cc5)o4)c3)o2)cc1,> 100 µM,–,> 100 µM,> 100 µM,> 100 µM,> 100 µM,> 100 µM,> 100 µM,> 100 µM,–,> 100 µM,–,–,–,–,–,–
COC(=O)C(C(=O)C(=O)NC1Nc2ccc(C)cc2S1)c1nc2ccc(Cl)cc2[nH]c1=O (stereo unspecified),–,–,> 100 µM,> 100 µM,> 100 µM,> 100 µM,–,> 100 µM,> 100 µM,–,> 100 µM,–,–,–,–,–,–
COC(=O)CC(NC(=O)OCc1ccccc1)C(C(=O)OCc1ccccc1)C1(C)OCCO1 (stereo unspecified),> 100 µM,58.2 µM,–,> 100 µM,–,> 100 µM,36.5 µM,> 100 µM,> 100 µM,–,–,–,–,–,–,–,–
CC1(C)COC(c2c(-c3ccccc3)noc2CS(=O)c2ccccc2)=N1 (stereo unspecified),> 100 µM,> 100 µM,> 100 µM,> 100 µM,–,> 100 µM,> 100 µM,> 100 µM,> 100 µM,–,–,–,–,–,–,–,–
COc1ccc(-c2c3ccccc3c(-c3ccc(OCCCCCBr)cc3)c3ccccc23)cc1,> 100 µM,> 100 µM,> 100 µM,–,> 100 µM,> 100 µM,> 100 µM,> 100 µM,> 100 µM,–,–,–,–,–,–,–,–
O=[N+]([O-])c1ccc(NS(=O)(=O)C(F)(F)F)cc1,> 100 µM,–,> 100 µM,> 100 µM,> 100 µM,> 100 µM,> 100 µM,> 100 µM,> 100 µM,–,> 100 µM,–,–,–,–,–,–
O=C(CSc1nc2ccc(I)cc2c(=O)n1Cc1ccccc1)NN1C(=O)CCC1=O,> 100 µM,> 100 µM,> 100 µM,> 100 µM,64.7 µM,> 100 µM,> 100 µM,70.6 µM,> 100 µM,–,–,–,–,–,–,–,–
O=C(/C=C/c1ccco1)c1cccc(C(=O)/C=C/c2ccco2)n1,–,6.82 µM,> 100 µM,22.6 µM,> 81.9 µM,> 100 µM,> 67.4 µM,> 100 µM,> 38.9 µM,–,> 28.4 µM,–,–,–,–,–,–
Cc1cc2occ(-c3ccc(Cl)cc3)c2c(=O)o1,> 100 µM,> 100 µM,> 100 µM,> 100 µM,> 100 µM,> 100 µM,> 100 µM,> 100 µM,> 100 µM,–,–,–,–,–,–,–,–
COc1ccc(-c2nc(-c3cnccn3)n(C3OC(CO)C(O)C(O)C3O)n2)cc1 (stereo unspecified),> 100 µM,> 100 µM,> 100 µM,> 100 µM,> 100 µM,> 100 µM,> 100 µM,> 100 µM,> 100 µM,–,–,–,–,–,–,–,–
CCOC1=C2NC(Cc3ccc(F)cc3)=NC2C(=O)c2ccccc21 (stereo unspecified),61.8 µM,–,> 100 µM,> 100 µM,51.6 µM,85.7 µM,87.5 µM,> 100 µM,–,–,–,–,–,–,–,–,–
CC(=O)CC1(C)OC(N)=C(C#N)C1(C#N)C#N (stereo unspecified),> 100 µM,–,> 100 µM,> 100 µM,> 100 µM,> 100 µM,> 100 µM,–,> 100 µM,–,> 100 µM,–,–,–,–,–,–
CCCCCCCCCCCCCCCCOCC(Cl)COP(=O)(O)OP(=O)(O)OCC1OC(n2cnc3c(N)ncnc32)C(O)C1O (stereo unspecified),> 100 µM,–,> 100 µM,> 100 µM,> 100 µM,> 100 µM,> 100 µM,> 100 µM,> 100 µM,–,> 100 µM,–,–,–,–,–,–

# — PubChem BioAssay (NCI)
